From the NIST ThermoML archive (doi:10.1016/j.fluid.2013.07.054) come the findings set out here.

Numbers after ± are expanded uncertainties.

The conditions of this data set: 298.15 K; 101 kPa; Liquid; Vibrating tube method.
Usually mass density stands for the mass of a sample divided by its volume. For `CC(=O)C(C)C` [3-methyl-2-butanone], the mass density is 800.63 ± 0.11 kg/m3. `CC(=O)CC(C)C` [4-methylpentan-2-one]: the mass density was determined as 796.23 ± 0.11 kg/m3. For `CCC(C)=O` [butanone] the value was 800.3 ± 0.11 kg/m3.
